According to patent US20260256792A1, “TREATMENT OF CHRONIC SPONTANEOUS URTICARIA BY ADMINISTERING (R)-2-[3-[4-AMINO-3-(2-FLUORO-4-PHENOXY-PHENYL)PYRAZOLO[3,4-D]PYRIMIDIN-1-YL]PIPERIDINE-1-CARBONYL]-4-METHYL-4-[4-(OXETAN-3-YL)PIPERAZIN-1-YL]PENT-2-ENENITRILE” (priority 2023, published 2026):

System: IgG anti-FcεRI
Assay: Phase 2 CSU study: serum IgG anti-FcεRI ELISA
Assay type: in vivo, human
Conditions: for IgG anti-FcεRI (arbitrary unit) Median Percent Change from Baseline: Baseline to Week 12
From the text: Blood samples were also collected through Week 12 to evaluate the change in baseline in various biomarkers, including sMRGPRX2, IgG anti-TPO, IgG anti-FCεRI, IgG anti-IgE, and IL-31.
Collection of biological samples for other biomarker research was also part of this study. The following samples for biomarker research were required and were to be collected from all participants in this study: • Serum and plasma samples for soluble biomarkers and cellular tests. Analytes included IgG anti-IgE, IgG anti-FcεRI, IgG anti-TPO, IgE anti-TPO, IL-31, and sMRGPRX2. • Blood samples for immune cell phenotyping, including measurement of eosinophil levels • Blood samples for BTK occupancy in peripheral blood mononuclear cells (PBMCs) at selected sites
For each patient, serum samples were to be collected on each of four visits (Visits 2, 4, 6, and end of study/follow up).
If dilutions were to be prepared, the same dilutions were to be prepared twice from each sample. These were to be measured on different plates. Each plate was to include a standard curve. Samples were to be measured twice for all biomarkers except for sMRGPRX2. Mean measurement values were to be calculated, and the concentration of the biomarker was to be calculated using GraphPad Prism 9 software (4-PL model).
For the IgG anti-FcεRI ELISA, MaxiSorp plates were coated overnight with […] recombinant human FcεRIα and blocked with 10% protein-free blocking buffer diluted in assay buffer. Following the addition of serum samples (1:100 in assay buffer) or the hIgG anti-FcεRI standard (1:2 serial dilution in assay buffer), the plates were incubated at room temperature. Next, the anti-IgG-HRP detection antibody was added to all samples. Development was performed using ECL-prime solution and chemiluminescent signal intensity was measured on the Victor5 multimode plate reader.
Assay data ranges are described below. • sMRGPRX2: 0.1 ng/mL-10 ng/mL • IgG anti-FCεRI: 0-10000 arbitrary units (AU) • IgG anti-TPO: 0-3000 international units (IU) • IgE anti-TPO: 0-500 AU • IgG anti-IgE: 0-100000 AU • IL-31: 0.1 ng/mL-20 ng/mL

In the case of `CC(C)(C=C(C#N)C(=O)N1CCC[C@@H](n2nc(-c3ccc(Oc4ccccc4)cc3F)c3c(N)ncnc32)C1)N1CCN(C2COC2)CC1` [rilzabrutinib, (R)-2-[3-[4-amino-3-(2-fluoro-4-phenoxy-phenyl)pyrazolo[3,4-d]pyrimidin-1-yl]piperidine-1-carbonyl]-4-methyl-4-[4-(oxetan-3-yl)piperazin-1-yl]pent-2-enenitrile], the “reduction from baseline for IgG anti-FCFRI” value (400 mg TID, Week 12) is reported as 38.7%, the “IgG anti-FcεRI (arbitrary unit) Median Percent Change from Baseline” value (400 mg BID) is reported as −39.0% and the “IgG anti-FcεRI (arbitrary unit) Median Percent Change from Baseline” value (400 mg QPM) is reported as −20.4%. The “IgG anti-FcεRI (arbitrary unit) Median Percent Change from Baseline” value (400 mg TID) was −38.7%.
